pEC50: −log10 of the molar value.
How the values were obtained:
hTRAAK = target: T1, hTRAAK (Homo sapiens, UniProt Q9NYG8); assay: Whole-cell patch clamp, transiently transfected tsA-201 cells, TRAAK; assay type: cell-based; conditions: Supporting Information Figure S2
T1 construct: expressed in transfected cells; host or cells: tsA-201, transient, pcDNA3.1 vector
T1 sequence (Q9NYG8 1-393): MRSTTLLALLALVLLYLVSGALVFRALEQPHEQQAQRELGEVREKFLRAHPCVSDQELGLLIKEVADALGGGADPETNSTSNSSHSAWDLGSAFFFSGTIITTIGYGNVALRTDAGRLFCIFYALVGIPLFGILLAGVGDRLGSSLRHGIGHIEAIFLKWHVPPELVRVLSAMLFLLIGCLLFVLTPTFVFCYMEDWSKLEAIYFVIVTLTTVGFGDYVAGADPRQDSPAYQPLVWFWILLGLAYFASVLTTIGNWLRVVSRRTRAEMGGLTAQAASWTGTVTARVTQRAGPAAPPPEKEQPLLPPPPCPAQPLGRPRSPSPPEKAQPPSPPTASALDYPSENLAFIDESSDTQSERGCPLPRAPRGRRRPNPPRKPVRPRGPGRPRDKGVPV
Procedure: Recordings of hTREK1, hTREK1∆N, hTREK2, hTRAAK and […] currents from transiently transfected tsA‐201 cells were performed using methods as described in Veale and Mathie (2016). Briefly, the pcDNA3.1 vector was cloned with the gene of interest, and these vectors and a similar vector containing GFP were incorporated into the tsA201 cells (0.5 μg per well) using the calcium phosphate method. The cells were incubated for 6–12 h at 37°C in […] and 5% carbon dioxide. Cells were then washed using a PBS solution and used for experiments after 24 h.
Currents were recorded using whole‐cell patch‐clamp using an Axopatch 1D amplifier. Cells were placed in a recording chamber filled with an external medium composed of 145 mM, NaCl, 2.5 mM KCl, 3 mM MgCl2, 1 mM CaCl2 and 10 mM HEPES (pH to 7.4, using NaOH). The internal medium used in the glass pipette comprised 150 mM KCl, 3 mM MgCl2, 5 mM (or 0.1 mM) EGTA and 10 mM HEPES (pH to 7.4, using KOH). GI‐530159 was applied by bath perfusion. Currents were recorded and analysed using pCLAMP 10.2 software Microsoft Excel. The voltage protocol used for recording current through K2P channels was as previously described (Veale and Mathie, 2016). For analysis, we measured the current difference between the −80 and −40 mV steps.

BK (KCa1.1) = BK (KCa1.1) (Homo sapiens, UniProt Q12791); assay: BL-1249 selectivity (manual patch-clamp and flux assay platforms), BK; assay type: cell-based; conditions: 10 μM
Kv7.2 (KCNQ2) = Kv7.2 (KCNQ2) (Homo sapiens, UniProt O43526); assay: BL-1249 selectivity (manual patch-clamp and flux assay platforms), Kv7.2; assay type: cell-based; conditions: 10 μM
Kv7.3(KCNQ3) = Kv7.3(KCNQ3) (Homo sapiens, UniProt O43525); assay: BL-1249 selectivity (manual patch-clamp and flux assay platforms), Kv7.3; assay type: cell-based; conditions: 10 μM
NaV1.7 = NaV1.7 (Homo sapiens, UniProt Q15858); assay: BL-1249 selectivity (manual patch-clamp and flux assay platforms), NaV1.7; assay type: cell-based; conditions: 10 μM
[1] = tested on: Na current in DRG neurons; assay: Voltage-clamp recordings from DRG neurons, Na current; assay type: cell-based, rat
Procedure: Acutely dissociated rat DRG cells were obtained according to a previously described protocol (Passmore, 2005). All animal care and experimental procedures complied with guidelines and were approved by the Pfizer Neusentis Institutional Animal Use and Care Committee. Animal studies are reported in compliance with the ARRIVE guidelines (Kilkenny et al., 2010; McGrath and Lilley, 2015).Cells were plated on coated coverslips (poly‐D‐lysine/laminin, BD Biosciences, San Jose, CA, USA) prior to patching on the same day. Cells were perfused with an extracellular solution containing (in mM): 135 NaCl, 4.7 KCl, 1 CaCl2, 1 MgCl2, 10 HEPES and 10 glucose, pH 7.4, with NaOH (310 mOsmol·L^−1). Pipette solution contained (in mM): 130 KCl, 1 MgCl2, 5 MgATP, 10 HEPES and 5 EGTA, pH adjusted to 7.3 with KOH (290 mOsmol·L^−1). For whole‐cell recordings, currents were filtered at 2 kHz and sampled at 5 kHz. Series resistance was compensated for by up to 80%. For current‐clamp recordings, action potential firing and resting membrane potential (RMP) were recorded from small cells ([…]). GI‐530159 was dissolved in 0.3% DMSO as 10 mM stock and applied in the vicinity of cells using a gravity fed perfusion system (MSC‐200, Bio‐Logic SAS, Claix, France).

TREK1 = tested on: TREK1; set-up: method as in Cao et al., 2010; conditions: ref Cao et al., 2010; read-out: EC50 in electrophysiological experiments; cited from earlier work
TASK3 (K2P9.1) = TASK3 (K2P9.1) (Homo sapiens, UniProt Q9NPC2); set-up: method as in Cao et al., 2010; conditions: ref Cao et al., 2010; cited from earlier work
hTREK1 = target: T2, hTREK1 (Homo sapiens, UniProt O95069); assay: Manual whole-cell patch clamp, HEK293 cells stably expressing TREK1; assay type: cell-based; set-up: expressed in transfected cells; conditions: 100 μM; n = 7
T2 sequence (O95069 1-426): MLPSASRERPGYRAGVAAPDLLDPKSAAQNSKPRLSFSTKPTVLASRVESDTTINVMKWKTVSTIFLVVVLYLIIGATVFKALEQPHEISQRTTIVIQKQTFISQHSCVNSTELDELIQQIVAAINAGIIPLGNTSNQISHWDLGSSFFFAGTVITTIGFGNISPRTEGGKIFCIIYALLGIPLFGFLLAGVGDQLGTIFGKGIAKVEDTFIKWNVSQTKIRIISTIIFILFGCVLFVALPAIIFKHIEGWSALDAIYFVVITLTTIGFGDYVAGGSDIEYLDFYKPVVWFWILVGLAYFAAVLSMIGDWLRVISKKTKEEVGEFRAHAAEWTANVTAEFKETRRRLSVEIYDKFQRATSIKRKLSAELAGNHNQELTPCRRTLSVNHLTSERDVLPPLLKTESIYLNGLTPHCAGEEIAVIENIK
Procedure: Electrophysiological studies were performed on CHO or HEK293 cells, stably expressing human recombinant TREK1; tsA‐201 cells transiently transfected with human recombinant K2P channels and acutely dissociated rat DRG cells, all at room temperature (22–24°C).
Studies were performed using a conventional patch clamp and Multiclamp 700B and pCLAMP software (Molecular Devices, Sunnyvale, CA, USA). For conventional manual patch clamp, glass coverslips containing HEK293 cells were perfused with an extracellular solution (ECS) containing (in mM): 135 NaCl, 4.7 KCl, 1 CaCl2, 1 MgCl2, 10 HEPES and 10 glucose, pH 7.4, with NaOH (310 mOsmol·L^−1). The patch pipette was filled with (in mM): 130 KCl, 1 MgCl2, 5 MgATP, 10 HEPES and 10 BAPTA, pH adjusted to 7.3 with KOH (290 mOsmol·L^−1).

Sequence of NaV1.7 (Q15858 whole entry): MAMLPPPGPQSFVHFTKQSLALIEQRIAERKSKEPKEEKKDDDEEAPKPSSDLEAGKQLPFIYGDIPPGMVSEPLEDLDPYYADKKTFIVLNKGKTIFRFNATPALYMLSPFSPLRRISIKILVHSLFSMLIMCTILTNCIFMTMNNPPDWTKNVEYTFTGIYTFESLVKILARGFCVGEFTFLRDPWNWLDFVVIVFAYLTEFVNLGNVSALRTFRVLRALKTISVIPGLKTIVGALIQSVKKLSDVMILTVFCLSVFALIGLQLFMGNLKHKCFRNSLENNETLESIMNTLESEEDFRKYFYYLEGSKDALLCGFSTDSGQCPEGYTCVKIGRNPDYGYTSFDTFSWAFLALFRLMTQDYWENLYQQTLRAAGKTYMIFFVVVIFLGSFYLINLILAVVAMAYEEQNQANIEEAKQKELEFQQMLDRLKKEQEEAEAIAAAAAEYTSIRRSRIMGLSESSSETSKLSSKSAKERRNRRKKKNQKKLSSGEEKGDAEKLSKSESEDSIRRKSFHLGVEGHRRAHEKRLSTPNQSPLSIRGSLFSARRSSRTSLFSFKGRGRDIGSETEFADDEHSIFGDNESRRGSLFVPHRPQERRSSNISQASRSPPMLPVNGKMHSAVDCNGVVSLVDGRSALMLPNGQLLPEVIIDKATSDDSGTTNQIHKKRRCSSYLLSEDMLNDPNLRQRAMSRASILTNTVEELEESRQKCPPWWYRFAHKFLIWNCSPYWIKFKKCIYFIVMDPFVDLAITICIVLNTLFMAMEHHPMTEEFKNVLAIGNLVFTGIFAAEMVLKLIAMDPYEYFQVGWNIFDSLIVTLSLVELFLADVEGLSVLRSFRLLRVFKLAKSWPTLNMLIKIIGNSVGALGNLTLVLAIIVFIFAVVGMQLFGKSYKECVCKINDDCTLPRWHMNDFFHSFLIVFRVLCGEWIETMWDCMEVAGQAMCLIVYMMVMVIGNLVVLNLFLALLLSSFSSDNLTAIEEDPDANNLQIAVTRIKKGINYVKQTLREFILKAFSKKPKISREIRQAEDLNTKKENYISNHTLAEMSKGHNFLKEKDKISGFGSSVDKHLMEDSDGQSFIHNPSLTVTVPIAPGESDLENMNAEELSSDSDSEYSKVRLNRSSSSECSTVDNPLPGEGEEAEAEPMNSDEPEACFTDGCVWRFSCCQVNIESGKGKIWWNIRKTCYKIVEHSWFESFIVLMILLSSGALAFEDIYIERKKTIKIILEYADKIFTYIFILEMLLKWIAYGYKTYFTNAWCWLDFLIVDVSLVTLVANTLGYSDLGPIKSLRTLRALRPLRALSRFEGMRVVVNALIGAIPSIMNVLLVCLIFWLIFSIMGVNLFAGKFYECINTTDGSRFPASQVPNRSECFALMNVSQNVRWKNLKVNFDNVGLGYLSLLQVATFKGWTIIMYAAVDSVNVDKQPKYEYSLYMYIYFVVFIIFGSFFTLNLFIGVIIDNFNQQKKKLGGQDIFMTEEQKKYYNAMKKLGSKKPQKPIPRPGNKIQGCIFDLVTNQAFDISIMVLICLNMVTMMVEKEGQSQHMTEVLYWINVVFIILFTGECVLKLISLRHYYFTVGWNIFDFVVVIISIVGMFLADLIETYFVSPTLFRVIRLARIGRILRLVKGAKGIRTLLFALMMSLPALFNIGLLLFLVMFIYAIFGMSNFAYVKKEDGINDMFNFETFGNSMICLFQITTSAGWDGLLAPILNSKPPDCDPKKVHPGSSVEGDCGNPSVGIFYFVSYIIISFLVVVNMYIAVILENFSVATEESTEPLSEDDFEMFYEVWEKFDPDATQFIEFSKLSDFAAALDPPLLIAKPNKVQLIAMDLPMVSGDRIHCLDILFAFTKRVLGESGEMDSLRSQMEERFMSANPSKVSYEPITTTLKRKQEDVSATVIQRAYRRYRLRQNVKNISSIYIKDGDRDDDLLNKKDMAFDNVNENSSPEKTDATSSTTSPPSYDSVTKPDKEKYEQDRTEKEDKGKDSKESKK
Sequence of BK (KCa1.1) (Q12791 whole entry, species assumed): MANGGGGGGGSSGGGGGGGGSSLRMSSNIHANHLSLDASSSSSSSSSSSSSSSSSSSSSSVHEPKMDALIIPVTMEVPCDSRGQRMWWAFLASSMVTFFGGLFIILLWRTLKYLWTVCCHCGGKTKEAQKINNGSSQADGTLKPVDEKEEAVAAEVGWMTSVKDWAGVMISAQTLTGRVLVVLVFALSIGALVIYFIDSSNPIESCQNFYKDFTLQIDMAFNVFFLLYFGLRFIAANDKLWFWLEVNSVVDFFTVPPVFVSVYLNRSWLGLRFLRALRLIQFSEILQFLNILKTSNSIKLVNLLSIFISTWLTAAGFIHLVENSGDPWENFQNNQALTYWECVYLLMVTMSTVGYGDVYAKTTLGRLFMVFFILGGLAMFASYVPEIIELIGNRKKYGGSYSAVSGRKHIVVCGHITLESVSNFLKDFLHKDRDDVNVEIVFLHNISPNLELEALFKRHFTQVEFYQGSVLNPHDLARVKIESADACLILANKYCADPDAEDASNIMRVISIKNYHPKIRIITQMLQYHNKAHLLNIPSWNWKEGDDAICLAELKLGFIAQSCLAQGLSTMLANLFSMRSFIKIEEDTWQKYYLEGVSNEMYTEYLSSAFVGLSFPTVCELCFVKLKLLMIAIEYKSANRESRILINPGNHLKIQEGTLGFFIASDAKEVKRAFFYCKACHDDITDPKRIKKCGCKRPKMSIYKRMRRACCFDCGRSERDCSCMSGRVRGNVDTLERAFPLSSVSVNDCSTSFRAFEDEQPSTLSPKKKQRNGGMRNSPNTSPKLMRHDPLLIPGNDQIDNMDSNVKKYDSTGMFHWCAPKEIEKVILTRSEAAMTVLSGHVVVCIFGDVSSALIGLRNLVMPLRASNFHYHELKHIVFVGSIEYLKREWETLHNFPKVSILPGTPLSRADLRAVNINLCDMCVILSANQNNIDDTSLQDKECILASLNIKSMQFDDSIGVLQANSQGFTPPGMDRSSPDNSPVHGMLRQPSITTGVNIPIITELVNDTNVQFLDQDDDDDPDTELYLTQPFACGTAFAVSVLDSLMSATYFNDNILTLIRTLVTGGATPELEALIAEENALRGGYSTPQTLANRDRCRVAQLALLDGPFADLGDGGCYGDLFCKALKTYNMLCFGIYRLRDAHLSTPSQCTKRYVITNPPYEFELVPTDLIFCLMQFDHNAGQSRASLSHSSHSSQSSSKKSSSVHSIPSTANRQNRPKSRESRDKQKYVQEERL
Sequence of TASK3 (K2P9.1) (Q9NPC2 whole entry, species assumed): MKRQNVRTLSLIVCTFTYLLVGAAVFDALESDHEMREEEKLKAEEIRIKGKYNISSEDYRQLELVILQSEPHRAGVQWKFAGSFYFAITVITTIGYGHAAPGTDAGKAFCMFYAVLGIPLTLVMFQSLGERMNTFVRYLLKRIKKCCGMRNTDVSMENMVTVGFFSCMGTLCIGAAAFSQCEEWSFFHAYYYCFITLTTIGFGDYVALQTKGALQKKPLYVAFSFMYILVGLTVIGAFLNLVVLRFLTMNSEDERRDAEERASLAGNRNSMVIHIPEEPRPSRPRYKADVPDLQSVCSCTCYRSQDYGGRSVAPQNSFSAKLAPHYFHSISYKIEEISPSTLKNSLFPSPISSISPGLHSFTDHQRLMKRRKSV

What does the source list for `c1ccc(-c2nnn[nH]2)c(Nc2cccc3c2CCCC3)c1` [BL‐1249, (5,6,7,8‐tetrahydro‐naphthalen‐1‐yl)‐[2‐(1H‐tetrazol‐5‐yl)‐phenyl]‐amine]?
effect on TRAAK channels (hTRAAK): clear enhancement; effect on BK (KCa1.1) (BK (KCa1.1)): significant inhibition; effect on Kv7.2 (KCNQ2) (Kv7.2 (KCNQ2)): significant inhibition; effect on Kv7.3 (KCNQ3) (Kv7.3(KCNQ3)): significant inhibition; effect on NaV1.7 (NaV1.7): significant inhibition; block of Na current in DRG neurons [1]: clear block; pEC50 (TREK1): ~6.00; effect on TASK3 (K2P9.1) channels (TASK3 (K2P9.1)): strong activator; maximal enhanced current (hTREK1): 7.2 ± 1.3 nA
